26 molecules from patent US20060276464A1, “Diarylsulfone sulfonamides and use thereof” (Wyeth, priority 2005, published 2006) can be followed below.

The structures appear in SMILES notation.

Assay [1] deals with T1, SFRP-1 (Homo sapiens, UniProt Q8N474).
T1 sequence (Q8N474 32-314): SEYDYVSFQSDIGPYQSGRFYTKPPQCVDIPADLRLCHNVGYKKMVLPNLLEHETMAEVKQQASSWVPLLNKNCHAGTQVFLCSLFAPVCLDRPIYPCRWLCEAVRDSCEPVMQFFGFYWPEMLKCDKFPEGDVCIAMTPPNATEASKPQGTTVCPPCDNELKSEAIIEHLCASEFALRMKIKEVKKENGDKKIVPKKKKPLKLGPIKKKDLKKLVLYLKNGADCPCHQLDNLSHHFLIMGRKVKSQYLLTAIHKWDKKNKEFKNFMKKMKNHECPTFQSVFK
Nature of the assay: Fluorescence polarization binding assay (competitive displacement of a probe compound from SFRP-1).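 Note: test compound competes with a fluorescent probe held by SFRP-1, seen as a drop in probe anisotropy after incubation in darkness, with anisotropy as function of rising compound dose.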 The conditions noted are these: fluorescence anisotropy, 45 nM SFRP-1, 20 nM probe.

The target of assay [2] is T1, SFRP-1. The experiment in a line: Cell-based assay for in vitro measurement of SFRP-1/SARP2 antagonist activity (U2OS cells co-transfected with 16x TCF-tk-Luciferase reporter, Wnt and hSFRP-1).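 Note: U2OS cells co-transfected with a TCF-tk luciferase reporter, a Wnt vector, hSFRP-1 or empty vector and CMV-βgal, luciferase luminescence read in cell lysates alongside βgal activity.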 In general terms: Reporter assays use an easily measured gene product as a stand-in for the process of interest.

`COc1ccc2c(c1)CC(NS(=O)(=O)c1cc(S(=O)(=O)c3ccccc3)ccc1C(F)(F)F)C2` (stereo not shown) [Example 991, N-(5-methoxy-2,3-dihydro-1H-inden-2-yl)-5-(phenylsulfonyl)-2-(trifluoromethyl)benzenesulfonamide] came in with a 50% inhibitory concentration (IC50) at SFRP-1 [1] of 80 nM. In addition, the EC50 on SFRP-1 [2] was 2640 nM.
`CN(CCCNS(=O)(=O)c1cc(S(=O)(=O)c2ccccc2)ccc1C(F)(F)F)C(=O)CCC(=O)O` [Example 992, 4-{methyl[3-({(5-(phenylsulfonyl)-2-(trifluoromethyl)phenyl]sulfonyl}amino)propyl]amino}-4-oxobutanoic acid] came in with an IC50 at SFRP-1 [1] of 700 nM. Also, on SFRP-1 [2], the response was half-maximal at 3160 nM (EC50).
On the same counts, the results for `NCCCNS(=O)(=O)c1cc(S(=O)(=O)c2ccccc2)ccc1C(F)(F)F` [Example 993, N-(3-aminopropyl)-5-(phenylsulfonyl)-2-(trifluoromethyl)benzenesulfonamide] are 1500 nM and 2290 nM.
Taken in the same sequence, the figures for `O=C(O)c1cccc(-c2cccc(CNS(=O)(=O)c3cc(S(=O)(=O)c4ccccc4)ccc3C(F)(F)F)c2)c1` [Example 996, 3′-[({[5-(phenylsulfonyl)-2-(trifluoromethyl)phenyl]sulfonyl}amino)methyl]biphenyl-3-carboxylic acid] were 300 nM and 3010 nM.
Turning to `O=C(O)c1ccc(-c2cccc(CNS(=O)(=O)c3cc(S(=O)(=O)c4ccccc4)ccc3C(F)(F)F)c2)cc1` [Example 997, 3′-[({[5-(phenylsulfonyl)-2-(trifluoromethyl)phenyl]sulfonyl}amino)methyl]biphenyl-4-carboxylic acid], the IC50 on SFRP-1 [1] turned out to be 900 nM. Besides, at SFRP-1 [2], the concentration for a half-maximal effect (EC50) was 3080 nM.
Taken in the same sequence, the figures for `N=C(N)Nc1ccc(CCNS(=O)(=O)c2cc(S(=O)(=O)c3ccccc3)ccc2C(F)(F)F)cc1` [Example 998, N-[2-(4-{[amino(imino)methyl]amino}phenyl)ethyl]-5-(phenylsulfonyl)-2-(trifluoromethyl)benzenesulfonamide] were 300 nM and 2200 nM.
The molecule `COc1ccc(S(=O)(=O)c2ccc(C(F)(F)F)c(S(=O)(=O)NC3CCNCC3)c2)cc1` [Example 999, 5-[(4-methoxyphenyl)sulfonyl]-N-piperidin-4-yl-2-(trifluoromethyl)benzenesulfonamide] had a concentration for half-maximal inhibition (IC50) at SFRP-1 [1] of 800 nM. At SFRP-1 [2], this molecule yielded an EC50 of 789 nM.
Taken in the same sequence, the figures for `CC(C(N)=O)N1CCC(NS(=O)(=O)c2cc(S(=O)(=O)c3ccccc3)ccc2C(F)(F)F)CC1` (stereo not shown) [Example 1003, 2-[4-({[5-(phenylsulfonyl)-2-(trifluoromethyl)phenyl]sulfonyl}amino)piperidin-1-yl]propanamide] were 140 nM and 399 nM.
Taken in the same sequence, the figures for `O=S(=O)(NC1Cc2ccc(O)cc2C1)c1cc(S(=O)(=O)c2ccccc2)ccc1C(F)(F)F` (stereo not shown) [Example 1004, N-(5-hydroxy-2,3-dihydro-1H-inden-2-yl)-5-(phenylsulfonyl)-2-(trifluoromethyl)benzenesulfonamide] were 60 nM and 473 nM.
As for `COP(=O)(Cc1ccc(C(=O)N(C)CCNS(=O)(=O)c2cc(S(=O)(=O)c3ccccc3)ccc2C(F)(F)F)cc1)OC` [Example 1006, dimethyl [4-({methyl[2-({[5-(phenylsulfonyl)-2-(trifluoromethyl)phenyl]sulfonyl}amino)ethyl]amino}carbonyl)benzyl]phosphonate], the concentration for half-maximal inhibition (IC50) at SFRP-1 [1] stood at 180 nM. On SFRP-1 [2], this molecule gave a concentration for a half-maximal effect (EC50) of 8160 nM.
On the same counts, the results for `CN(CCNS(=O)(=O)c1cc(S(=O)(=O)c2ccccc2)ccc1C(F)(F)F)C(=O)N(C)C1CCNCC1` [Example 1007, N-[2-(methyl{[methyl(piperidin-4-yl)amino]carbonyl}amino)ethyl]-5-(phenylsulfonyl)-2-(trifluoromethyl)benzenesulfonamide] are 900 nM and 1520 nM.
On SFRP-1 [1], `CN(CCNS(=O)(=O)c1cc(S(=O)(=O)c2ccccc2)ccc1C(F)(F)F)C(=O)N[C@@H]1CCNC1` [Example 1008, N-[2-(methyl{[(3R)-pyrrolidin-3-ylamino]carbonyl}amino)ethyl]-5-(phenylsulfonyl)-2-(trifluoromethyl)benzenesulfonamide] returned an IC50 of 3000 nM. This molecule also yielded an EC50 on SFRP-1 [2] of 936 nM.
Taken in the same sequence, the figures for `CN(CCNS(=O)(=O)c1cc(S(=O)(=O)c2ccccc2)ccc1C(F)(F)F)C(=O)N[C@@H]1CCCN(C(=O)OC(C)(C)C)C1` [Example 1009, tert-butyl (3R)-3-[({methyl[2-({[5-(phenylsulfonyl)-2-(trifluoromethyl)phenyl]sulfonyl}amino)ethyl]amino}carbonyl)amino]piperidine-1-carboxylate] were 210 nM and 945 nM.
On the same counts, the results for `CN(CCNS(=O)(=O)c1cc(S(=O)(=O)c2ccccc2)ccc1C(F)(F)F)C(=O)N[C@H]1CCCN(C(=O)OC(C)(C)C)C1` [Example 1010, tert-butyl (3S)-3-[({methyl[2-({[5-(phenylsulfonyl)-2-(trifluoromethyl)phenyl]sulfonyl}amino)ethyl]amino}carbonyl)amino]piperidine-1-carboxylate] are 600 nM and 2000 nM.
`O=S(=O)(N[C@H]1CC[C@H](O)CC1)c1cc(S(=O)(=O)c2ccccc2)ccc1C(F)(F)F` [Example 1013, N-(trans-4-hydroxycyclohexyl)-5-(phenylsulfonyl)-2-(trifluoromethyl)benzenesulfonamide] registered a half-maximal inhibitory concentration (IC50) on SFRP-1 [1] of 158 nM. It took 277 nM to reach a half-maximal effect on SFRP-1 [2] (EC50).
`O=S(=O)(NC1CCN(CCN2CCOCC2)CC1)c1cc(S(=O)(=O)c2ccccc2)ccc1C(F)(F)F` [Example 1019, N-[1-(2-morpholin-4-ylethyl)piperidin-4-yl]-5-(phenylsulfonyl)-2-(trifluoromethyl)benzenesulfonamide] had a 50% inhibitory concentration (IC50) on SFRP-1 [1] of 290 nM. Also, on SFRP-1 [2], the EC50 was determined as 898 nM.
On the same counts, the results for `O=C(c1ccc(=O)n(S(=O)(=O)c2cc(S(=O)(=O)c3ccccc3)ccc2C(F)(F)F)c1)N1CCC(NS(=O)(=O)c2cc(S(=O)(=O)c3ccccc3)ccc2C(F)(F)F)CC1` [Example 1020, N-{1-[(6-oxo-1-{[5-(phenylsulfonyl)-2-(trifluoromethyl)phenyl]sulfonyl}-1,6-dihydropyridin-3-yl)carbonyl]piperidin-4-yl}-5-(phenylsulfonyl)-2-(trifluoromethyl)benzenesulfonamide] are 600 nM and 264 nM.
On the same counts, the results for `COc1ccc(CNS(=O)(=O)c2cc(S(=O)(=O)c3ccccc3)ccc2C(F)(F)F)c(OC)c1` [Example 1021, N-(2,4-dimethoxybenzyl)-5-(phenylsulfonyl)-2-(trifluoromethyl)benzenesulfonamide] are 200 nM and over 10000 nM.
On the same counts, the results for `CN(CCNS(=O)(=O)c1cc(S(=O)(=O)c2ccccc2)ccc1C(F)(F)F)C(=O)N[C@@H]1CCCNC1` [Example 1022, N-[2-(methyl{[(3R)-piperidin-3-ylamino]carbonyl}amino)ethyl]-5-(phenylsulfonyl)-2-(trifluoromethyl)benzenesulfonamide] are 170 nM and 726 nM.
For `CN(CCNS(=O)(=O)c1cc(S(=O)(=O)c2ccccc2)ccc1C(F)(F)F)C(=O)N[C@H]1CCCNC1` [Example 1023, N-[2-(methyl{[(3S)-piperidin-3-ylamino]carbonyl}amino)ethyl]-5-(phenylsulfonyl)-2-(trifluoromethyl)benzenesulfonamide], the half-maximal inhibitory concentration (IC50) on SFRP-1 [1] was found to be 210 nM. The molecule also had a half-maximal effective concentration (EC50) at SFRP-1 [2] of 547 nM.
Regarding `O=C(c1ccc(-c2ccccc2)nc1)N1CCC(NS(=O)(=O)c2cc(S(=O)(=O)c3ccccc3)ccc2C(F)(F)F)CC1` [Example 1024, N-{1-[(6-phenylpyridin-3-yl)carbonyl]piperidin-4-yl}-5-(phenylsulfonyl)-2-(trifluoromethyl)benzenesulfonamide], the IC50 at SFRP-1 [1] turned out to be 200 nM. Besides, the concentration giving a half-maximal response (EC50) at SFRP-1 [2] stood at 236 nM.
In the case of `COC(=O)COc1ccc2c(c1)CC(NS(=O)(=O)c1cc(S(=O)(=O)c3ccccc3)ccc1C(F)(F)F)C2` (stereo not shown) [Example 1028, methyl{[2-({[5-(phenylsulfonyl)-2-(trifluoromethyl)phenyl]sulfonyl}amino)-2,3-dihydro-1H-inden-5-yl]oxy}acetate], the IC50 at SFRP-1 [1] came to 60 nM. Besides, at SFRP-1 [2], the response was half-maximal at 87 nM (EC50).
On the same counts, the results for `O=C(c1ccnc(N2CCCC2)c1)N1CCC(NS(=O)(=O)c2cc(S(=O)(=O)c3ccccc3)ccc2C(F)(F)F)CC1` [Example 1029, 5-(phenylsulfonyl)-N-[1-(2-pyrrolidin-1-ylisonicotinoyl)piperidin-4-yl]-2-(trifluoromethyl)benzenesulfonamide] are 140 nM and 490 nM.
In the case of `O=S(=O)(NCc1ccc(Cl)nc1)c1cc(S(=O)(=O)c2ccccc2)ccc1C(F)(F)F` [Example 1030, N-[(6-chloropyridin-3-yl)methyl]-5-(phenylsulfonyl)-2-(trifluoromethyl)benzenesulfonamide], at SFRP-1 [1], the half-maximal inhibitory concentration (IC50) came out at 500 nM. In addition, the concentration for a half-maximal effect (EC50) on SFRP-1 [2] came out at 1110 nM.
Turning to `O=C(O)COc1ccc2c(c1)CC(NS(=O)(=O)c1cc(S(=O)(=O)c3ccccc3)ccc1C(F)(F)F)C2` (stereo not shown) [Example 1031, {[2-({[5-(phenylsulfonyl)-2-(trifluoromethyl)phenyl]sulfonyl}amino)-2,3-dihydro-1H-inden-5-yl]oxy}acetic acid], at SFRP-1 [1], the IC50 is 20 nM. On SFRP-1 [2], the response was half-maximal at 85 nM (EC50).
On the same counts, the results for `O=S(=O)(NCc1ccc(N2CCCC2)nc1)c1cc(S(=O)(=O)c2ccccc2)ccc1C(F)(F)F` [Example 1032, 5-(phenylsulfonyl)-N-[(6-pyrrolidin-1-ylpyridin-3-yl)methyl]-2-(trifluoromethyl)benzenesulfonamide] are 500 nM and 1440 nM.

For orientation: IC50 means the concentration at which inhibition is half-maximal. By EC50 is commonly meant the midpoint of the concentration-response curve. A high value points to a less potent agent.
